Results on two compounds are retold here after publication PMC12503911, “Cytotoxicity of Atropisomeric [1,1′‐Binaphthalene]‐2,2′‐Diamines (BINAM) and Analogs in Human Cancer Cells: Enantioselectivity, Structure–Activity Relationships, and Mechanism” (Chemmedchem, 2025).

What all share (assay): biochemical
Holding throughout (design): 33PanQinase radiometric kinase activity assay, residual activity in % of control, contract lab Reaction Biology
What all share (conditions): mean of intraexperimental duplicates, n = 1

One assay addresses CDK1/CycB1 (Homo sapiens, UniProt P06493). Here is the method:
(§1) Kinase Screening was performed at Reaction Biology (Freiburg, Germany) by using the ^33PanQinase Assay.^[ [90] ^] Based on this knowledge, we commissioned a kinase screening by the firm Reaction Biology, targeting those kinases whose inhibition has shown an indirect effect on microtubules. In our selection, we included additional kinases that are known to be involved in centrosome amplification (PLK4^[ [82] ^]), centrosome clustering (CDK1/2,^[ [83] ^] PLK1^[ [84] ^]), spindle multipolarity (SRC^[ [85] ^]), microtubule dynamics (AKT1^[ [86] ^]), and LIMK1/2 activation (ROCK1^[ [87] ^]) or are crucial for the mitosis (BUB1B, NEK2/9, WEE1^[ [88] ^]). Nonetheless, 1(R) and 1(S) at 10 µM had almost no inhibitory effects on any of the chosen kinases (Table 4 ). Only Aurora A (mean residual activity for 1(R): 86%, 1(S): 98%) and ASK1 (mean residual activity for 1(R): 90%, 1(S): 117%) were slightly enantioselectively impacted. However, we theorize that those marginal inhibitions are not explanatory for the antiproliferative and morphological effects of 1(R) on cancer cells.

For the next assay, the target named is T1, NEK2 (Homo sapiens, UniProt P51955).
T1 sequence (P51955 1-445): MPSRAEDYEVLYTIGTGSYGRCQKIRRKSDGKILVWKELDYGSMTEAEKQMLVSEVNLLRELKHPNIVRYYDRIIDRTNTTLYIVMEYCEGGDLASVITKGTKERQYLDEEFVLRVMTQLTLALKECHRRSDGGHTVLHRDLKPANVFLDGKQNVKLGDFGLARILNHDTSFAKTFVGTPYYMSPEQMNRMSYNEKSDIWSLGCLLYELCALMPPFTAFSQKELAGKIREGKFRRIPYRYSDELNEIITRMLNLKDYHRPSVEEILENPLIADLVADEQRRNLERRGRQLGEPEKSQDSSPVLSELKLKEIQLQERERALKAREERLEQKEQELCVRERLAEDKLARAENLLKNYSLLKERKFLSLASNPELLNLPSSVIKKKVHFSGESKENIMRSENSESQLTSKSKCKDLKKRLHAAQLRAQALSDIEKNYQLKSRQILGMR
As for the experimental part: as §1

In another assay the target is T2, PLK4 (Homo sapiens, UniProt O00444).
T2 sequence (O00444 1-970): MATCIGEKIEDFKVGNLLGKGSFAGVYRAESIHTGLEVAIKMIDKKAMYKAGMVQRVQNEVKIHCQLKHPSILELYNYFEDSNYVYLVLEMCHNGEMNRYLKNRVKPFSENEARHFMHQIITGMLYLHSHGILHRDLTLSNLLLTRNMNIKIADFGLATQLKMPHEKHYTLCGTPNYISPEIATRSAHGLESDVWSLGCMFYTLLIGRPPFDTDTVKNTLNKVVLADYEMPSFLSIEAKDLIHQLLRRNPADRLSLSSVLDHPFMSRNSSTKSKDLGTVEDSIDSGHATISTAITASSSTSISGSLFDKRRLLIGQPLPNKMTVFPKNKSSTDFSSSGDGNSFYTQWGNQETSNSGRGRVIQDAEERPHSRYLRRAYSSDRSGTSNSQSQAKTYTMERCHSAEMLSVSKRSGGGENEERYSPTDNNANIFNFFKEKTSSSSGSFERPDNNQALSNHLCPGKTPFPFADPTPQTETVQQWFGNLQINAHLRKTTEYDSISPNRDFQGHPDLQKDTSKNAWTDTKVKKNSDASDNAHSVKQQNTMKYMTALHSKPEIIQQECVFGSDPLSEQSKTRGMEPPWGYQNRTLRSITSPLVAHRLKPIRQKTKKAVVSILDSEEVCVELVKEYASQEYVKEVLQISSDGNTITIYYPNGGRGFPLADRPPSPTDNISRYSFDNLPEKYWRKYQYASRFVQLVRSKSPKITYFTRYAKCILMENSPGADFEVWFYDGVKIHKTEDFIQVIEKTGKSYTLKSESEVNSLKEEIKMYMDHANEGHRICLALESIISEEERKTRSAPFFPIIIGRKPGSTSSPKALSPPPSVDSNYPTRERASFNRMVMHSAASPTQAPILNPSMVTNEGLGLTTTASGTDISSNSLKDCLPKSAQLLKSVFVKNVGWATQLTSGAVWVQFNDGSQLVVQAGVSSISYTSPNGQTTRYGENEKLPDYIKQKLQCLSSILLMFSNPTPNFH
As for the experimental part:
as §1

The target in another assay is SRC (Homo sapiens, UniProt P12931). As for the experimental part: as §1
For a further assay, the target named is T3, AuroraC (Homo sapiens, UniProt Q9UQB9).
T3 construct: gene AURKC
T3 sequence (Q9UQB9 1-309): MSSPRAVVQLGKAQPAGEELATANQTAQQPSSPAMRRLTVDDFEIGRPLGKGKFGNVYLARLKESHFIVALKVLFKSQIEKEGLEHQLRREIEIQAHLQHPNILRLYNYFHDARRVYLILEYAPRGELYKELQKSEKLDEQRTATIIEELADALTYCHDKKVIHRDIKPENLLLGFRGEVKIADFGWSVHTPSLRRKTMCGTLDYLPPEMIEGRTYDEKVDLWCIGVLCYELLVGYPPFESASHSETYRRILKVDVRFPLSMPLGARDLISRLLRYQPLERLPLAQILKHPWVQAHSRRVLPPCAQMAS
As for the experimental part: as §1

The mark [1] stands for this setting: read-out: Residual activities [% of control] / 1(S) 10 µM.
Setting [2] is: read-out: Residual activities [% of control] / 1(R) 10 µM.

Read-outs that look alike come from different tables or passages of the source.

Chain of CDK1/CycB1 (P06493 whole entry): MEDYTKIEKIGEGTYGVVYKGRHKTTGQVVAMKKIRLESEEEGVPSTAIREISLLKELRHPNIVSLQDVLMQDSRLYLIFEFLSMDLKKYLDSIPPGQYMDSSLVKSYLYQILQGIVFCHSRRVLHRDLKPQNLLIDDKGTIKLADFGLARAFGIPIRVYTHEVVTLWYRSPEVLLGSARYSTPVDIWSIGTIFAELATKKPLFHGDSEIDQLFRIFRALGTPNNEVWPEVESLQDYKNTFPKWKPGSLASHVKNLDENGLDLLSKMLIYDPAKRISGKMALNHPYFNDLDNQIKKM
Chain of CDK1/CycB1 (P14635 whole entry partner): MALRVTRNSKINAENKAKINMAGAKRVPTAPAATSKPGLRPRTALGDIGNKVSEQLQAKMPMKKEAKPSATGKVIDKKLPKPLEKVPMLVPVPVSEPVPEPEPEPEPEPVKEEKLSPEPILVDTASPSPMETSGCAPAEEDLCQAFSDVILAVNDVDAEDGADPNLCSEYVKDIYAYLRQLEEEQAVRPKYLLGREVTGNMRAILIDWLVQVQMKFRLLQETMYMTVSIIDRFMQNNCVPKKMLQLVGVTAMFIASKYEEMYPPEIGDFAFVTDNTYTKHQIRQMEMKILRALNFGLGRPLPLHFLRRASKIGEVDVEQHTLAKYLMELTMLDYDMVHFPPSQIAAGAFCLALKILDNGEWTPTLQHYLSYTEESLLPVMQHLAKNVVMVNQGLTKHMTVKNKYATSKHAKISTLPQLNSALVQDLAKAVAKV
Chain of SRC (P12931 whole entry): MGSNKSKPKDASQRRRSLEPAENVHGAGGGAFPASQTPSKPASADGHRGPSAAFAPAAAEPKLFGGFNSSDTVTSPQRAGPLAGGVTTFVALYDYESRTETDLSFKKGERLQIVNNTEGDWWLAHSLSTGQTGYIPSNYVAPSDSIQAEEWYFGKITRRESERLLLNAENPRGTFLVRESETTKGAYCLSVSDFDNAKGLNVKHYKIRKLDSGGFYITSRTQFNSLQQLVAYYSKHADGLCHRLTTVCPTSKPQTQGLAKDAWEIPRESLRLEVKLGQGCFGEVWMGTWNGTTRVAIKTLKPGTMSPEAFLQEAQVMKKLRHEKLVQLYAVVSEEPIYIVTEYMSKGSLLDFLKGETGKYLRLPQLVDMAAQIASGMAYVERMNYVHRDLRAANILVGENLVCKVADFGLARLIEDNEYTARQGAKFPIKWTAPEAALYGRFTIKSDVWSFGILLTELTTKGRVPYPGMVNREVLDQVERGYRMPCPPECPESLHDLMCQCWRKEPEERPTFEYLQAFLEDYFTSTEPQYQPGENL

For `Nc1ccc2ccccc2c1-c1c(N)ccc2ccccc12` [1(S), S‐BINAM], the remaining activity at 10 µM at CDK1/CycB1 (setting [1]) was determined as 100%; on NEK2 (setting [1]), 96%; on PLK4 (setting [1]) it was 99%; at SRC (setting [1]), 103%; at AuroraC (setting [1]), 100%.

Turning to `Nc1ccc2ccccc2c1-c1c(N)ccc2ccccc12` [1(R), (R)‐[1,1′‐binaphthalene]‐2,2′‐diamine], the remaining activity at 10 µM at CDK1/CycB1 (setting [2]) came to 101%; at NEK2 (setting [2]), 106%; at PLK4 (setting [2]) it was 97%; at SRC (setting [2]), 99%; at AuroraC (setting [2]), 101%.
